Each structure is given as a SMILES string.

The nature of this test: In vitro C-C chemokine receptor type 3 activity of compound by using eotaxin induced human eosinophil chemotaxis assay.
In turn, `CC[C@H](O)[C@H]1C[C@@H](Cc2ccccc2)CCN1CCCNC(=O)Nc1cccc(C(C)=O)c1` [1-(3-Acetyl-phenyl)-3-{3-[(2R,4S)-4-benzyl-2-((S)-1-hydroxy-propyl)-piperidin-1-yl]-propyl}-urea] came in with an IC50 of 20 nM. With `N#Cc1cccc(NC(=O)NCCCN2CCC(Cc3ccc(F)cc3)CC2)c1` [1-(3-Cyano-phenyl)-3-{3-[4-(4-fluoro-benzyl)-piperidin-1-yl]-propyl}-urea] the figure was 80 nM. `N#Cc1cccc(NC(=O)NCCCN2CCC(Cc3ccc(Cl)cc3)CC2)c1` [1-{3-[4-(4-Chloro-benzyl)-piperidin-1-yl]-propyl}-3-(3-cyano-phenyl)-urea] registered a half-inhibitory concentration (IC50) of 200 nM.

Values taken from BindingDB's records for doi:10.1016/s0960-894x(02)00206-8 (Bristol-Myers Squibb, 2002).
